Columns and labels:
[1] = test system: early-stage sleeping sickness; conditions: man and animals; cited from earlier work
[2] = test system: decarboxylated S-adenosylmethionine (DSAM) and S-adenosylmethionine (SAM); conditions: cited from earlier work
T. brucei = conditions: cited from earlier work
[3] = late-stage sleeping sickness; cited from earlier work
[4] = Hydrolysis / decomposition in aqueous solution; assay type: physicochemical
Method: In the case of 1,2,2-tris(methylsulfonyl)-1-methylhydrazine, this reaction occurs slowly. A 50 μM solution of this compound hydrolyzes at an initial rate of 1% per minute in phosphate buffered saline (pH 7.6) at 37° C.
Hydrolysis is expected to occur preferentially at N-2 to generate the 1,2-bis(sulfonyl)-1-methylhydrazine. The sulfonic acid and 1,2-bis(sulfonyl)-1-methylhydrazine that are generated are both ionized under these conditions. The release of protons can be used to follow the decomposition of these and related compounds. The release of protons can be assayed by following the decrease in absorbance at 560 nm of a weakly buffered (1 mM potassium phosphate) phenol red (21 mg/l) solution; initial pH 7.6 at 37° C. The assay can be calibrated using HCl standards.
(§1) The reaction of 1,2-bis(sulfonyl)-1-methylhydrazine with water at pH 7.4-7.6 at 37° C. can be followed by proton release and/or methanol generation. Methanol generation can be assayed using alcohol oxidase and measuring the resultant O2 consumption using a Gilson oxygraph. This assay can be calibrated using methanol standards. The reaction of 1,2-bis(sulfonyl)-1-methylhydrazine with water is relatively fast [a 50 μM solution of 1,2-bis(methylsulfonyl)-1-methylhydrazine decomposes at an initial rate of 12-15% per minute in phosphate buffered saline (pH 7.6) at 37° C.] compared to the hydroylsis of 1,2,2-tris(methylsulfonyl)-1-methylhydrazine. RSO2 N=NMe may also decompose by a free radical mechanism to a smaller extent and methylate by the generation of methyl radicals.

T. equiperdum = experiment: Activity against T. equiperdum
Method: (§2) A representative agent, 1,2-bis(methylsulfonyl)-1-methylhydrazine, was also tested against several other trypanosoma species.

[5] = Methanol generation in vitro (spontaneous breakdown to generate reactive methyl groups); assay type: physicochemical; conditions: aqueous buffered (pH 7.6) solution
Method: as §1
Methanol was produced by these agents in aqueous solutions free from strong competing nucleophiles. Formation of this alcohol was used as a measure of the rate of spontaneous breakdown of these compounds to generate reactive methyl groups. […] These findings provide strong evidence that methylation is essential for the observed biological activity of these compounds.

I. brucei brucei = experiment: Activity against brucei brucei
Method: as §2

[6] = test system: T. rhodesiense (Y Tat 1.1); experiment: Survival time of CD-1 mice infected with T. rhodesiense (trypanocidal activity); assay type: in vivo, T. rhodesiense (Y Tat 1.1); CD-1 mice; conditions: single ip dose 0.2 mmol/kg in 0.05 ml of DMSO
Method: The trypanocidal properties of several methylating agents including MeSO2 N(Me)N(SO2 Me)2 and MeSO2 N(Me)N(Me)SO2 Me were determined by measuring their effects on the survival time of CD-1 mice infected with T. rhodesiense (Y Tat 1.1), a pleimorphic strain that produces a non-relapsing disease in mice. The level of parasites in the bloodstream and body fluids increases by approximately 10-fold per day and the animals die when the parasite burden exceeds 1 to 2×10^9 cells/ml. Infection with a single viable parasite will kill a mouse in approximately 9 to 10 days.
Mice were infected ip with approximately 10^6 trypanosomes/mouse in phosphate buffered saline containing glucose. This level of parasites produces death in 4 days post-infection. These mice were treated (ip) with a single dose of drug dissolved in the appropriate vehicle 3 days after infection, when the parasitemia was 1 to 3×10^8 cells/ml of blood and the mice, if untreated, would survive for only 24 additional hours. The number of days the mice survived beyond that of the untreated controls was used as a measure of trypanocidal activity. The level of parasitemia in treated mice was measured at regular intervals to distinguish between parasite-related and drug toxicity-related deaths. No toxic deaths were observed. Mice that survived for 30 days without detectable parasitemias were considered cured. The effects of a single dose of various methylating agents on the survival time of trypanosome-bearing mice are summarized in Table II.
^a Drug that was administered was dissolved in 0.5 ml of phosphate
buffered saline containing glucose.
^b Drug that was administered was dissolved in 0.05 ml of DMSO.

T. evansi = experiment: Activity against T. evansi
Method: as §2

L1210 leukemia = experiment: Survival time of mice bearing the L1210 leukemia; assay type: in vivo
Method: The tumor-inhibitory properties of several compounds, e.g., 1,2-bis(methylsulfonyl)-1-methylhydrazine, 1-methyl-1,2,2-tris(methylsulfonyl)hydrazine, 1,2-bis(methylsulfonyl)-1,2-dimethylhydrazine and 1-(2-chloroethyl)-1,2,2-tris(methylsulfonyl)hydrazine were determined by measuring the effects of these agents on the survival time of mice bearing the L1210 leukemia as described by K. Shyam, L. A. Cosby, and A. C. Sartorelli, J. Med. Chem., 28, 525-527 (1985).
^a Administered once daily for 6 consecutive days, beginning 24 hours
after tumor transplantation with 5-10 animals being used per group.
^b Average change in body weight from onset to termination of therapy
^c % T/C = average survival time of treated/control animals ×

T. rhodesiense = experiment: Oral trypanocidal activity (preliminary); assay type: in vivo, T. rhodesiense; mice; conditions: aqueous solutions, preliminary results
Source text: Orally active trypanocidal agents are desirable since, in areas where trypanosomiasis is endemic, other routes of drug administration frequently present problems.

trypanosomes = experiment: Loss of antitrypanosomal activity upon aging of aqueous buffered solutions; assay type: in vivo; conditions: aqueous buffered (pH 7.6)
T. gambiense = experiment: Activity against T. gambiense
Method: as §2

[7] = L1210, at optimum effective daily dose, once daily × 6 days

NCCC[C@](N)(C(=O)O)C(F)F [DFMO, alpha-difluoromethylornithine]
Efficacy against early-stage sleeping sickness [1]: effective against early-stage sleeping sickness | increase in decarboxylated S-adenosylmethionine (DSAM) and S-adenosylmethionine (SAM) [2]: 1000 fold | Induction of differentiation in T. brucei (T. brucei): induce differentiation in T. brucei

Nc1nc(N)nc(Nc2ccc([As]3SCC(CO)S3)cc2)n1 (centres unmarked) [melarsoprol]
patients die due to drug toxicity [3]: up to 5%

CN(NS(C)(=O)=O)S(C)(=O)=O [MeSO2 N(Me)NHSO2 Me, 1,2-bis(methylsulfonyl)-1-methylhydrazine]
Initial rate of hydrolysis / decomposition ([4]; 50 μM solution, phosphate buffered saline (pH 7.6), 37° C.): 12-15 % per minute | Decomposition in aqueous solutions ([4]; acidified solutions): can be inhibited by dosing in acidified solutions | Activity against T. equiperdum (T. equiperdum): Activity has been demonstrated | Time within which decomposition was complete (no further methanol generated) [5]: ≤ 15 min | Activity against I. brucei brucei (I. brucei brucei): Activity has been demonstrated | Mean Extension of Life [6]: 11.8 days | Activity against T. evansi (T. evansi): Activity has been demonstrated | 60-day cures, % (L1210 leukemia; [7]): 0% | % T/C (average survival time of treated/control animals × 100) (L1210 leukemia; [7]): 180% | AvΔ Wt, % (average change in body weight from onset to termination of therapy) (L1210 leukemia; mouse, in vivo): -10.7% | Trypanocidal activity on oral administration compared with Table II (T. rhodesiense): comparable activity to that reported in Table II | antitrypanosomal activity lost on aging (trypanosomes; after 0 minutes of aging): 0% | antitrypanosomal activity lost on aging (trypanosomes; after 1 minute of aging): 21% | antitrypanosomal activity lost on aging (trypanosomes; after 5 minutes of aging): 73% | antitrypanosomal activity lost on aging (trypanosomes; after 15 minutes of aging): 97% | Activity against T. gambiense (T. gambiense): Activity has been demonstrated

Reference: patent US5101072A, “Sulfonylhydrazines and their use as antineoplastic agents and as antitrypanosomal agents” (Yale University, priority 1989, dated 1992)
